For test [1], the target named is T1, E. feacium DltA (Enterococcus faecium, UniProt Q3XZT7).
T1 sequence (Q3XZT7 1-504): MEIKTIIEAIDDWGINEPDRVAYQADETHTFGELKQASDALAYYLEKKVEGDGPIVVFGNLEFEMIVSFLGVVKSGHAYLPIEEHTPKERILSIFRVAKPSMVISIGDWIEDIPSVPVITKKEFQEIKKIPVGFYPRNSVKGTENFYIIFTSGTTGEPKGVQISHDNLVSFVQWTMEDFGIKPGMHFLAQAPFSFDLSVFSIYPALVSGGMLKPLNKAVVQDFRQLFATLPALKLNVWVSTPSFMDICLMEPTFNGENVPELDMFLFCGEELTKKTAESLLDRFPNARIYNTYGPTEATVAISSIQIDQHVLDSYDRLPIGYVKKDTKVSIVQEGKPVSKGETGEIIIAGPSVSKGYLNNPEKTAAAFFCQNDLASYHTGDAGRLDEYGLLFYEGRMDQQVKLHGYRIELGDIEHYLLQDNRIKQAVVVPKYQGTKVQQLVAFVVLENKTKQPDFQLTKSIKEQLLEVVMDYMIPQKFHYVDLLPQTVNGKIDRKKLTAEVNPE
As to the kind of experiment: in vitro DltA activity assay (luminescence, IC50 determination). Type of test: biochemical. To be noted: recombinant DltA, 30min preincubation at room temperature, 0.5mM D-Alanine, 0.5-5µM ATP; read-out: E. feacium DltA IC50.

For test [2], the target named is T2, S. aureus DltA (Staphylococcus aureus, UniProt Q2FZW6).
T2 construct: made in house; host or cells: E. coli BL21
T2 sequence (Q2FZW6 1-485): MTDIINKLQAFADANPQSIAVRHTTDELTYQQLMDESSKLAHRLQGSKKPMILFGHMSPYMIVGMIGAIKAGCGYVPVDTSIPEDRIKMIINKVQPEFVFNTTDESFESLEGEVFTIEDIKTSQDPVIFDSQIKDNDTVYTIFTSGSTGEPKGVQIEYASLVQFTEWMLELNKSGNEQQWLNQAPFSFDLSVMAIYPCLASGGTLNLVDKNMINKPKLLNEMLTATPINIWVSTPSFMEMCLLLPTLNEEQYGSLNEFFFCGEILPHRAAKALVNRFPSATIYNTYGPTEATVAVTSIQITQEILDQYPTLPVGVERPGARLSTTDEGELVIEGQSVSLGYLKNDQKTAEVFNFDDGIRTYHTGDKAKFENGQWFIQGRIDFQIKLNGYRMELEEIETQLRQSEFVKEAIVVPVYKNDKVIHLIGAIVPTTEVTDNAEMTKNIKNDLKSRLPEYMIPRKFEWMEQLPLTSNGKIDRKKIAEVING
The description is as above. It is filed as biochemical.

Test [3] deals with T3, E. feacalis DltA (Enterococcus faecalis, UniProt Q830N0).
T3 sequence (Q830N0 1-506): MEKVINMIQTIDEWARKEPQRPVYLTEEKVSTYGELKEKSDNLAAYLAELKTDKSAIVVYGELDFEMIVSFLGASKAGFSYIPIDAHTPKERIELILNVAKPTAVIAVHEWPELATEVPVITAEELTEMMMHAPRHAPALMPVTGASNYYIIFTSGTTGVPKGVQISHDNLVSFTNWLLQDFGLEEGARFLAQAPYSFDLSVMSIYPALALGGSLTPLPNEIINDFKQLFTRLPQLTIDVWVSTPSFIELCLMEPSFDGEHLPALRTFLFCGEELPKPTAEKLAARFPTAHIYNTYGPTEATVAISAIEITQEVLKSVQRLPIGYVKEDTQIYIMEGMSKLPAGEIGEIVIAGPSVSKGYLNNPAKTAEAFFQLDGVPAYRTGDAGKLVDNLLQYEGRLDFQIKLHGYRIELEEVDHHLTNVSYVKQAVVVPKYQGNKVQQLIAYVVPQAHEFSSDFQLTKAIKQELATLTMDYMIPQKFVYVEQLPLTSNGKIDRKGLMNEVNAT
As to the kind of experiment: biochemical.

The target of test [4] is T4, S. Agalactiae DltA (Streptococcus agalactiae serotype III, UniProt Q8VM67).
T4 sequence (Q8VM67 1-511): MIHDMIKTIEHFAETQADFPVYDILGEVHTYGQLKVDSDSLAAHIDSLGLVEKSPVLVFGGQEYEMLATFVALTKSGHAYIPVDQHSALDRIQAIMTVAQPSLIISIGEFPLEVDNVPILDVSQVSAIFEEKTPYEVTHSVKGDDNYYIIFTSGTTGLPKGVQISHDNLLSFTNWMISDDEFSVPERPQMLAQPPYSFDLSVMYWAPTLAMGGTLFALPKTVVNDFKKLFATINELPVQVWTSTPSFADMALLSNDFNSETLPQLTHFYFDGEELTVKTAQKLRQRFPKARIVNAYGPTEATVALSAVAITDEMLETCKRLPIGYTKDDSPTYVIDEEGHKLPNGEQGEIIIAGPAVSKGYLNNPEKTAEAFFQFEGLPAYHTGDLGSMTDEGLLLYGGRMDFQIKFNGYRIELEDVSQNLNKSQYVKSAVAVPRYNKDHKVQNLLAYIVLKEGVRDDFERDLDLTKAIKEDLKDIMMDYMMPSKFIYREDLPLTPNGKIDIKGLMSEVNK
As to the kind of experiment: biochemical.

One may read the IC50 as the concentration at which inhibition is half-maximal.

For the compound `CN(C)CCCn1cc(-c2ccc3c(c2)ncn3C2CCCCC2)c2nc[nH]c(=O)c21` [Example 80, 7-(1-Cyclohexyl-1H-benzimidazol-5-yl)-5-(3-dimethylamino-propyl)-3,5-dihydro-pyrrolo[3,2-d]pyrimidin-4-one], the half-maximal inhibitory concentration (IC50) in test [1] came out at 620 nM; in test [2], 270 nM; in test [3], 55 nM; in test [4], 1500 nM.
Regarding `O=c1[nH]cnc2c(-c3ccc4c(c3)ncn4C3CCCCC3)cn(C3CCOCC3)c12` [Example 81, 7-(1-Cyclohexyl-1H-benzimidazol-5-yl)-5-(tetrahydro-pyran-4-yl)-3,5-dihydro-pyrrolo[3,2-d]pyrimidin-4-one], the 50% inhibitory concentration (IC50) in test [1] came to 300 nM; in test [2] it was 76 nM; in test [3], 170 nM; in test [4] it was 2500 nM.
On to `CC(C)N1CCC(n2cc(-c3ccc4c(c3)ncn4C3CCCCC3)c3nc[nH]c(=O)c32)CC1` [Example 82, 7-(1-Cyclohexyl-1H-benzimidazol-5-yl)-5-(1-isopropyl-piperidin-4-yl)-3,5-dihydro-pyrrolo[3,2-d]pyrimidin-4-one], for which the IC50 is 380 nM in test [1], 56 nM in test [2], 100 nM in test [3] and 1900 nM in test [4].

The values are drawn from patent EP2913333A1 (priority 2014, dated 2015).
